Values after ≈ are worked out from the molar mass of the structure shown. Values belong to the compound of their own block, whether it stands above or below them.
What was measured:
Assay in all cases: ≥ marks a high value that may be exact or a test limit, other limits are often not marked, values filed in µg/mL are converted to µM
Escherichia coli BL21 = tested on: Escherichia coli BL21
[1] = tested on: Pseudomonas aeruginosa PAO1
[2] = tested on: Staphylococcus aureus USA 300
[3] = tested on: Streptococcus pyogenes M1T1 5448
Acinetobacter baumannii = tested on: Acinetobacter baumannii
Enterococcus faecium = tested on: Enterococcus faecium
[4] = tested on: Escherichia coli ATCC 25922
Klebsiella pneumoniae = tested on: Klebsiella pneumoniae
Pseudomonas aeruginosa = tested on: Pseudomonas aeruginosa
[5] = tested on: Staphylococcus aureus ATCC 43300
Streptococcus pneumoniae = tested on: Streptococcus pneumoniae
[6] = tested on: Enterococcus faecium ATCC 700221
[7] = tested on: Pseudomonas aeruginosa ATCC 27853
[8] = tested on: Staphylococcus aureus ATCC 33591
Escherichia coli JW0013 = tested on: Escherichia coli JW0013
[9] = tested on: Listeria monocytogenes EGD
[10] = tested on: Staphylococcus aureus ATCC 25923
[11] = tested on: Acinetobacter baumannii ATCC 7978
[12] = tested on: Candida albicans ATCC 10231
[13] = tested on: Klebsiella aerogenes ATCC 13048
[14] = tested on: Klebsiella pneumoniae WGLW2
[15] = tested on: Staphylococcus aureus ATCC 29231

- MIC (Escherichia coli BL21): 16 µM (≈ 47.3 µg/mL)
- MIC [1]: 64 µM (≈ 189 µg/mL)
- MIC [2]: 4 µM (≈ 11.8 µg/mL)
- MIC [3]: ≥ 128 µM
SMILES: CC[C@H](C)[C@H](NC(=O)[C@H](CCCCN)NC(=O)[C@H](CCCCN)NC(=O)CNC(=O)[C@H](CCC(=O)O)NC(=O)[C@H](CCC(N)=O)NC(=O)[C@@H](NC(=O)[C@@H](NC(=O)[C@H](CCCCN)NC(=O)[C@H](CCCCN)NC(=O)[C@H](CC(C)C)NC(=O)[C@H](CCCN=C(N)N)NC(=O)[C@H](CCC(N)=O)NC(=O)[C@H](Cc1ccccc1)NC(=O)[C@@H](NC(=O)[C@H](CCCCN)NC(=O)[C@H](CCC(=O)O)NC(=O)[C@H](CCCCN)NC(=O)CNC(=O)[C@H](C)N)[C@@H](C)CC)[C@@H](C)O)[C@@H](C)CC)C(=O)N[C@@H](C)C(=O)N[C@@H](CCCCN)C(=O)N[C@@H](CCCN=C(N)N)C(=O)N[C@@H](C)C(=O)N[C@@H](Cc1c[nH]c2ccccc12)C(=O)O [AGKEKIFQRLKKTIQEGKKIAKRAW]

- MIC (Escherichia coli BL21): ≥ 32 µM
- MIC [1]: > 128 µM
- MIC [3]: 8 µM (≈ 23.4 µg/mL)
SMILES: CC[C@H](C)[C@H](NC(=O)[C@H](CCCCN)NC(=O)[C@H](CCCCN)NC(=O)[C@H](CCCCN)NC(=O)[C@H](CC(C)C)NC(=O)[C@H](Cc1ccccc1)NC(=O)[C@H](CCC(N)=O)NC(=O)[C@H](CCCN=C(N)N)NC(=O)[C@@H](NC(=O)[C@@H](NC(=O)[C@H](CCC(=O)O)NC(=O)[C@H](CCCCN)NC(=O)CNC(=O)[C@H](C)N)[C@@H](C)O)[C@@H](C)CC)C(=O)N[C@@H](CCC(N)=O)C(=O)N[C@@H](CCC(=O)O)C(=O)N[C@@H](CCCCN)C(=O)NCC(=O)N[C@@H](CCCCN)C(=O)N[C@@H](CCCN=C(N)N)C(=O)N[C@@H](C)C(=O)N[C@H](C(=O)N[C@H](C(=O)N[C@@H](C)C(=O)N[C@@H](Cc1c[nH]c2ccccc12)C(=O)O)[C@@H](C)CC)[C@@H](C)O [AGKETIRQFLKKKIQEKGKRATIAW]

- MIC (Escherichia coli BL21): 4 µM (≈ 12 µg/mL)
- MIC [1]: 16 µM (≈ 48 µg/mL)
- MIC [2]: ≥ 128 µM
- MIC [3]: 16 µM (≈ 48 µg/mL)
SMILES: CC[C@H](C)[C@H](NC(=O)[C@H](CO)NC(=O)[C@H](CCC(=O)O)NC(=O)[C@H](CCCN=C(N)N)NC(=O)CNC(=O)[C@H](C)N)C(=O)N[C@@H](CCCCN)C(=O)N[C@@H](C)C(=O)N[C@@H](Cc1ccc(O)cc1)C(=O)N[C@@H](CC(C)C)C(=O)N[C@@H](CCCCN)C(=O)N[C@@H](CCCCN)C(=O)N[C@@H](CCC(=O)O)C(=O)N[C@H](C(=O)N[C@@H](CCCCN)C(=O)N[C@@H](CCCCN)C(=O)N[C@@H](CCCCN)C(=O)N[C@@H](Cc1c[nH]c2ccccc12)C(=O)N[C@@H](CCCCN)C(=O)N[C@@H](CCCN=C(N)N)C(=O)N[C@@H](C)C(=O)N[C@H](C(=O)N[C@H](C(=O)N[C@@H](C)C(=O)N[C@@H](Cc1c[nH]c2ccccc12)C(=O)O)[C@@H](C)CC)C(C)C)[C@@H](C)CC [AGRESIKAYLKKEIKKKWKRAVIAW]

- MIC (Escherichia coli BL21): ≥ 32 µM
- MIC [1]: > 128 µM
- MIC [3]: 16 µM (≈ 47.2 µg/mL)
SMILES: CC[C@H](C)[C@H](NC(=O)[C@H](Cc1ccccc1)NC(=O)[C@H](C)NC(=O)[C@H](CCCCN)NC(=O)[C@H](CCCCN)NC(=O)CNC(=O)[C@H](CCCN=C(N)N)NC(=O)[C@H](CCCCN)NC(=O)[C@H](CCCN=C(N)N)NC(=O)[C@H](CC(C)C)NC(=O)[C@H](CCC(=O)O)NC(=O)[C@H](CCC(=O)O)NC(=O)[C@H](CCCCN)NC(=O)[C@H](CC(C)C)NC(=O)[C@H](Cc1ccc(O)cc1)NC(=O)[C@H](CC(C)C)NC(=O)[C@@H](NC(=O)[C@H](CC(C)C)NC(=O)[C@H](C)NC(=O)[C@H](CCC(N)=O)NC(=O)[C@H](CCCN=C(N)N)NC(=O)CNC(=O)[C@H](C)N)[C@@H](C)O)C(=O)N[C@@H](C)C(=O)N[C@@H](Cc1c[nH]c2ccccc12)C(=O)O [AGRQALTLYLKEELRKRGKKAFIAW]

- MIC (Acinetobacter baumannii): 5.3 µM (≈ 10.9 µg/mL)
- MIC (Enterococcus faecium): 8 µM (≈ 16.4 µg/mL)
- MIC [4]: > 16 µM
- MIC (Klebsiella pneumoniae): 16 µM (≈ 32.8 µg/mL)
- MIC (Pseudomonas aeruginosa): > 16 µM
- MIC [5]: 16 µM (≈ 32.8 µg/mL)
- MIC (Streptococcus pneumoniae): 8 µM (≈ 16.4 µg/mL)
SMILES: CC[C@H](C)[C@H](NC(=O)[C@H](Cc1cnc[nH]1)NC(=O)CNC(=O)CN)C(=O)N[C@@H](CCCN=C(N)N)C(=O)N[C@@H](CCCN=C(N)N)C(=O)N[C@H](C(=O)N[C@H](C(=O)N[C@@H](CCCN=C(N)N)C(=O)N[C@@H](CCCCN)C(=O)N[C@H](C(=O)N[C@H](C(=O)N[C@@H](Cc1cnc[nH]1)C(=O)N[C@H](C(=O)N[C@H](C(=O)N[C@@H](CCCCN)C(=O)N[C@@H](CCCCN)C(N)=O)[C@@H](C)CC)[C@@H](C)CC)[C@@H](C)CC)[C@@H](C)CC)[C@@H](C)CC)[C@@H](C)CC [GGHIRRIIRKIIHIIKK]

- MIC [6]: 6.3 µM (≈ 10.9 µg/mL)
- MIC [4]: 6.3 µM (≈ 10.9 µg/mL)
- MIC [7]: 50 µM (≈ 86.4 µg/mL)
- MIC [8]: 12.5 µM (≈ 21.6 µg/mL)
SMILES: CC[C@H](C)[C@H](NC(=O)[C@H](CCCCN)NC(=O)[C@H](CCCCN)NC(=O)[C@H](CC(C)C)NC(=O)[C@@H](NC(=O)[C@H](CCCCN)NC(=O)[C@H](CCCCN)NC(=O)[C@@H](NC(=O)[C@@H](NC(=O)[C@H](CC(=O)O)NC(=O)[C@H](Cc1ccccc1)NC(=O)[C@H](CC(C)C)NC(=O)CN)C(C)C)[C@@H](C)CC)C(C)C)C(=O)NCC(=O)NCC(=O)N[C@@H](CC(C)C)C(N)=O [GLFDVIKKVLKKIGGL]

- MIC (Escherichia coli JW0013): 0.3 µM (≈ 0.645 µg/mL)
SMILES: CC(C)C[C@H](NC(=O)[C@H](CCCN=C(N)N)NC(=O)[C@@H]1CCCN1C(=O)[C@H](Cc1cnc[nH]1)NC(=O)[C@@H]1CCCN1C(=O)[C@@H]1CCCN1C(=O)[C@H](CCCN=C(N)N)NC(=O)[C@@H]1CCCN1C(=O)[C@H](CCC(N)=O)NC(=O)[C@@H]1CCCN1C(=O)[C@H](CCCN=C(N)N)NC(=O)[C@H](Cc1ccc(O)cc1)NC(=O)[C@@H](NC(=O)[C@@H]1CCCN1C(=O)[C@H](CCCN=C(N)N)NC(=O)[C@H](CC(N)=O)NC(=O)[C@H](CC(N)=O)NC(=O)CN)C(C)C)C(=O)O [GNNRPVYRPQPRPPHPRL]

- MIC [4]: 64 µM (≈ 150 µg/mL)
- MIC [9]: ≥ 32 µM
- MIC [7]: 32 µM (≈ 75.2 µg/mL)
- MIC [10]: 64 µM (≈ 150 µg/mL)
SMILES: CC(C)C[C@H](NC(=O)[C@H](CC(C)C)NC(=O)[C@H](CCCCN)NC(=O)[C@@H](NC(=O)[C@@H](NC(=O)[C@H](CO)NC(=O)[C@H](CCCCN)NC(=O)[C@H](Cc1ccccc1)NC(=O)[C@@H](NC(=O)[C@@H](N)CCCCN)C(C)C)C(C)C)C(C)C)C(=O)N[C@@H](CCC(=O)O)C(=O)N[C@@H](CCCCN)C(=O)N[C@H](C(=O)N[C@H](C(=O)N[C@@H](CC(C)C)C(=O)N[C@@H](CCCCN)C(=O)N[C@@H](CCCCN)C(=O)N[C@@H](Cc1ccccc1)C(=O)N[C@@H](CO)C(=O)N[C@@H](CCCCN)C(N)=O)C(C)C)[C@@H](C)O [KVFKSVVKLLEKTVLKKFSK]

SMILES: CC[C@H](C)[C@H](NC(=O)[C@H](CCCCN)NC(=O)[C@H](CCCCN)NC(=O)[C@@H](N)CC(C)C)C(=O)NCC(=O)N[C@@H](CCCCN)C(=O)N[C@@H](CCCCN)C(=O)N[C@H](C(=O)N[C@@H](Cc1c[nH]c2ccccc12)C(=O)N[C@@H](CCCN=C(N)N)C(=O)N[C@H](C(=O)NCC(=O)N[C@@H](Cc1c[nH]c2ccccc12)C(=O)N[C@@H](CC(N)=O)C(=O)N[C@@H](Cc1c[nH]c2ccccc12)C(=O)N[C@@H](CCCN=C(N)N)C(=O)O)C(C)C)[C@@H](C)CC [LKKIGKKIWRVGWNWR]
- MIC [11]: 16.1 µM (≈ 33.4 µg/mL)
- MIC [12]: 61.9 µM (≈ 128 µg/mL)
- MIC [13]: ≥ 61.9 µM
- MIC [14]: ≥ 32.3 µM
- MIC [15]: ≥ 61.9 µM

- MIC (Escherichia coli JW0013): 1.28 µM (≈ 3.1 µg/mL)
SMILES: CC[C@H](C)[C@H](NC(=O)[C@H](CCCN=C(N)N)NC(=O)[C@H](CCCN=C(N)N)NC(=O)[C@@H]1CCCN1C(=O)[C@@H]1CCCN1C(=O)[C@H](CCCN=C(N)N)NC(=O)[C@@H]1CCCN1C(=O)[C@H](CCCN=C(N)N)NC(=O)[C@@H]1CCCN1C(=O)[C@H](CC(C)C)NC(=O)[C@H](Cc1ccc(O)cc1)NC(=O)[C@@H]1CCCN1C(=O)[C@H](CCSC)NC(=O)[C@H](CCCCN)NC(=O)[C@H](CC(=O)O)NC(=O)[C@@H](N)C(C)C)C(=O)N[C@@H](Cc1ccc(O)cc1)C(=O)N[C@@H](CC(N)=O)C(=O)N[C@@H](CCCN=C(N)N)C(N)=O [VDKMPYLPRPRPPRRIYNR]

From DBAASP
